Experimental data: US20070265451A1, “Process for the preparation of oxazolidinones and method of use thereof” (Board of Trustees of Michigan State University, priority 2001, published 2007)
In brackets after ≈: the same amount, converted by molar mass.

Legend:
Assay type in all cases: cell-based
[1] = system: Staphylococcus aureus 29213; experiment: Broth microdilution MIC, Staphylococcus aureus ATCC 29213; details: for MIC: ATCC29213, Table 2, read-out: MIC(90-100) SA-ATCC 29213; for MIC(90-100) SA-ATCC 29213: Table 2
Excerpt: See, NCCLS document M7-A5. Methods for Dilution Antimicrobial Susceptibility Tests for Bacteria That Grow Aerobically; Approved Standard-Fifth Edition. Volume 20, Number 2. January 2000, (ISBN 1-56238-394-9) and Lorian V. Antibiotics. Laboratory Medicine. 4th ed. Baltimore: Williams and Wilkins, pp. 52-111 (1996). For subsequent testing, the following strains have been used: Staphylococcus aureus NRS4 (992; HIP5836; New Jersey) (Smith et al., New Engl. J. Med. 340: 493-501 (1999); Tenover et al., J. Clin. Microbiol. 36: 1020-1027 (1998)), Staphylococcus aureus NRS3 (963sm; HIP5827; Michigan) (Smith et al., ibid.; Tenover et al., ibid.), Staphylococcus aureus NRS103 (Becker) (Karakawa and Vann, Sem. Infect. Dis. 4: 285 (1982), Staphylococcus aureus NRS102 (Reynolds) Karakawa and Vann, ibid; McMurray et al., JID 162: 759-762 (1990)), Staphylococcus epidermidis NRS101 (ATCC 35984), Streptococcus pneumoniae (ATCC 49619), Enterococcus faecalis (ATCC 51299), and Staphylococcus aureus (ATCC 43300.
Stock cultures of these strains were obtained by seeding colonies from overnight streak plates (Tryptic Soy Agar II (TSAII) and 5% sheep's blood (SB) agar plates: Becton Dickinson, CA#2211261) into sterile Mueller-Hinton Broth (MHB)(Becton Dickinson, CA#211443) and growing the suspensions to mid-late log phase in 13 mL screw-cap tubes. Glycerol (Sigma, CA#G-6279) was sterilized by autoclaving for 15 minutes at 121° C. in 6 mL volumes, and then stored at 2-8° C. This was diluted to 20% in dH2O, and then added 1:1 (250 μL:250 μL, 10% final glycerol concentration) to the logarithmically growing bacterial suspension of each strain. Tubes were frozen and stored at −70° C. Purity of the stock cultures was tested by thawing one tube of each strain in a water bath at 37° C. and plating them on TSAII with 5% SB. Plates were incubated overnight at 37° C. and colonies were examined for morphology. Growth curves and approximate CFU/mL were also obtained.
High purity substituted oxazolidinones prepared according to the method of the present invention and a ZYVOX standard (ZYVOX is a trade name for linezolid available from Pharmacia Corporation) were provided by Synthon Corporation, Monmouth Junction, N.J. Compounds were dissolved at 10 mg/mL in DMSO, as after a dilution of approx. 39.0 to reach the desired final starting concentration of 256 ug/ml, the concentration of DMSO is approximately 2.5%. Compounds were then stored at room temperature (25° C.) in the dark.
Antimicrobial susceptibility screening was as follows. All compounds were initially screened for activity in duplicate at 256 μg/mL (2.5% DMSO), including ZYVOX, the positive control for antimicrobial activity. A single well of bacterially inoculated 2.5% DMSO served as a positive control for bacterial growth, while a well of DMSO inoculated with of 50 μL of sterile 0.9% saline served as a negative growth control. Controls were prepared on every microplate, so that 46 was the maximum number of compounds that were screened per plate. Broth was pipetted into sterile microcentrifuge tubes, to which the compounds were then added (1:19.53 dilution or 2× final concentration). Each tube was vortexed, and 50 μL was immediately transferred to the microplate wells for each strain. Solubility was assessed by visual observation. MB (medium broth solubility) was recorded if the solution appeared only slightly cloudy. LB (low broth solubility) was recorded if the solution was extremely cloudy, and especially if larger, clumpy precipitates formed. Bacteria were grown as described above, although absorbance was measured at 650 nm and bacteria were diluted to an initial OD of 0.12-0.15. Bacteria were then further diluted 1:100 with 0.9% sterile saline. Within 15 minutes of this final dilution, 50 μL of this suspension was added to each well for a final volume of […], and a final bacterial concentration of 1×10^5 CFU/mL (except for the negative control well). Plates were grown as above and all observations were recorded. […]

[2] = system: Enterococcus faecalis 29212; experiment: Broth microdilution MIC, Enterococcus faecalis ATCC 29212; details: for MIC: ATCC29212, Table 2, read-out: MIC(90-100) EF-ATCC 29212; for MIC(90-100) EF-ATCC 29212: Table 2
[3] = system: Myeloid bone marrow cells; experiment: Bone marrow cell growth inhibition, myeloid
Excerpt: (§1) In general, many of the substituted oxazolidinones were as effective as ZYVOX.

[4] = system: Erythroid bone marrow cells; experiment: Bone marrow cell growth inhibition, erythroid
Excerpt: as §1

[5] = system: Megakaryocytic bone marrow cells; experiment: Bone marrow cell growth inhibition, megakaryocytic
Excerpt: as §1

Compound | MIC ([1]; Staphylococcus aureus) [µg/mL] | MIC ([2]; Enterococcus faecalis) [µg/mL] | also measured
COc1ccc(C(=O)CN2C[C@@H](COS(=O)(=O)c3ccc(Cl)c4nonc34)OC2=O)cc1 [Compound 207] | – | – | MIC90 ([1]; Staphylococcus aureus, ATCC29212, Table 1, SA, strain ATCC 29212, read-out: MIC90-100 SA ATCC 29212): 64 to 125 µg/mL (≈ 133 to 259 µM); MIC90 ([2]; Enterococcus faecalis, ATCC29213, Table 1, EF, strain printed ATCC 29213, read-out: MIC90-100 EF ATCC 29213): 250 µg/mL (≈ 519 µM); IC50 [3]: 0.8 µg/mL (≈ 1.66 µM); IC50 [4]: 0.2 µg/mL (≈ 0.415 µM); IC50 [5]: 3 µg/mL (≈ 6.23 µM)
C=CCN1CC(COS(=O)(=O)c2ccc(Cl)c3nonc23)OC1=O (centres unmarked) [Compound 255] | 62.5 (≈ 167 µM) | 250 (≈ 669 µM) | –
CCC#CCN1CC(COS(=O)(=O)c2ccc(Cl)c3nonc23)OC1=O (centres unmarked) [Compound 276] | 125 (≈ 313 µM) | 250 (≈ 625 µM) | –
CCCCN1CC(COS(=O)(=O)c2ccc(Cl)c3nonc23)OC1=O (centres unmarked) [Compound 285] | – | – | MIC(90-100) SA-ATCC 29213 [1]: 62.5 µg/mL (≈ 160 µM); MIC(90-100) EF-ATCC 29212 [2]: 250 µg/mL (≈ 641 µM)
CCC#CCN1CC(COS(=O)(=O)c2ccc([N+](=O)[O-])cc2)OC1=O (centres unmarked) [Compound 294] | 31.3 (≈ 85 µM) | 250 (≈ 679 µM) | –
COc1cccc(CN2CC(COS(=O)(=O)c3ccc(Cl)c4nonc34)OC2=O)c1 (centres unmarked) [Compound 323] | 250 (≈ 551 µM) | 125 (≈ 275 µM) | –
COc1ccc(C(=O)CN2CC(COS(=O)(=O)c3sc(NC(C)=O)nc3C)OC2=O)c(OC)c1 (centres unmarked) [Compound 324] | 62.5 (≈ 122 µM) | 250 (≈ 487 µM) | –
O=C(CN1CC(COS(=O)(=O)c2ccc(Cl)c3nonc23)OC1=O)c1ccc(F)cc1 (centres unmarked) [Compound 369] | 250 (≈ 532 µM) | 31.3 (≈ 66.6 µM) | –
O=C(CN1CC(COS(=O)(=O)c2ccc(Cl)c3nonc23)OC1=O)c1ccc(F)cc1 (centres unmarked) [Compound 401] | – | – | MIC(90-100) SA-ATCC 29213 [1]: 250 µg/mL (≈ 532 µM); MIC(90-100) EF-ATCC 29212 [2]: 62.5 µg/mL (≈ 133 µM)
COC(=O)CN1C[C@@H](COS(=O)(=O)c2ccc(Cl)c3nonc23)OC1=O [Compound 674] | 250 (≈ 616 µM) | 125 (≈ 308 µM) | –
CC(C)(C)OC(=O)/C=C/N1C[C@@H](COS(=O)(=O)c2ccc([N+](=O)[O-])cc2)OC1=O [Compound 1001] | 64 (≈ 149 µM) | 125 (≈ 292 µM) | –
CC(=O)OC(C(=O)OC[C@@H]1CN(C)C(=O)O1)c1ccccc1 (some centres unmarked) [Compound 1097] | 32 (≈ 104 µM) | – | –
CCCCN1CC(COS(=O)(=O)c2ccc(Cl)c3nonc23)OC1=O (centres unmarked) [Compound 1141] | 64 (≈ 164 µM) | 128 (≈ 328 µM) | –
CCOC(=O)/C=C/N1C[C@@H](COS(=O)(=O)c2ccc([N+](=O)[O-])cc2)OC1=O [Compound 1160] | 128 (≈ 320 µM) | – | –
CCN1C[C@@H](COS(=O)(=O)c2ccc(Cl)c3nonc23)OC1=O [Compound 1196] | 256 (≈ 708 µM) | 128 (≈ 354 µM) | –
CCN1C[C@@H](COS(=O)(=O)c2ccc(Cl)c([N+](=O)[O-])c2)OC1=O [Compound 1210] | 256 (≈ 702 µM) | – | –
